{
  "source": "patent EP0942896B1",
  "about": "“SUBSTITUTED PHENOLS AND THIOPHENOLS USEFUL AS ANTIOXIDANT AGENTS” (Aventis Pharmaceuticals Inc., priority 1996, dated 1998)",
  "key": {"[1]": {"experiment": "Animal parameters (food, body weight, liver weight/body weight, mortality) in rats", "assay_type": "in vivo", "conditions": "4 days; for food / lw/bw / body wt.: % of control, diet 0.3%, N = 5; for food: grams eaten per day per rat; for lw/bw: liver weight/body weight; for lw/bw / body wt. / mortality: rat; for body wt.: weight in grams; for mortality: male, Sprague-Dawley, in vivo", "source_text": "(§1) A typical experiment consists of 4-6 groups of rats (N = 5 per group) with I group being a control which receives no MDL compound and the other groups being treated with 0.3% MDL compound. Some of the compounds are either repeated at 0.3% or evaluated again at the lower dose of 0.1%. House Male Sprague-Dawley rats, 50-100 g, (Harlan Laboratories, Indianapolis, IN) in groups of 5, feeding ad libitum water and Purina Rodent chow (#5002) with or without MDL compound as a dietary admixture for 4 days. Make dietary admixtures (0.3%) by mixing 1.2 grams of an MDL compound with 400 grams of Purina rodent chow (#5002). Mix the MDL compound with approximately 50 grams of food using a mortar and pestle. This is added to the remainder of the food and mixed for 3 hours on a rotary mixer. In the morning of day 5, anesthetize non-fasted rats with carbon dioxide, and collect blood by cardiac puncture. Sacrifice rats by cervical dislocation. Record body weights and liver weights in grams. Record food consumption as grams • day^-1 • rat^-1. Deaths are recorded as mortality. Use aliquots of fresh serum for clinical chemistries, thiobarbituric acid reactive substances (TBARS) and conjugated diene measurements. Freeze aliquots of serum (∼ 0.5mL) and whole livers at -20°C for compound and metabolite concentration determination at a later time."}, "Male Sprague-Dawley Rats": {"tested_on": "Male Sprague-Dawley Rats", "experiment": "Serum clinical chemistries in rats fed compound as dietary admixture", "assay_type": "in vivo", "conditions": "% of control, diet 0.3%, 4 days, N = 5; for ALT: alanine aminotransferase in rat serum; for ALP: alkaline phosphatase in rat serum; for AST: aspartate aminotransferase in rat serum; for GLUC: glucose in rat serum; for response vs control in vivo at 0.3 % in diet: feed or water, 96 h", "source_text": "as §1\nAllow blood to clot at room temperature for 30 minutes. Obtain serum after centrifugation for 10 min at 4°C at 3000 rpm in a Beckman J-6M/E centrifuge with a JS-4.2 rotor. Analyze fresh serum by a COBAS MIRA S autoanalyzer (Roche Diagnostics) using Roche diagnostic reagents for the following clinical chemistry measurements: alkaline phosphatase (ALP, kit # 44553), alanine transaminase (ALT, kit # 42375), aspartate aminotransferase (AST, kit # 42381), total cholesterol (CHOL, kit # 44334), triglyceride (TG, kit # 44120), and glucose (GLU, kit # 44558). Calculate ALP, ALT, and AST as units/L. Calculate cholesterol, triglycerides, and glucose as mg/dL."}, "ICAM-1 [2]": {"tested_on": "ICAM-1", "experiment": "Inhibition of cytokine-induced ICAM-1 expression in human aortic smooth muscle cells (cell ELISA)", "assay_type": "cell-based", "conditions": "HASMC, tumor necrosis factor-alpha stimulated, average of two runs, numbers in parentheses represent negative values, read-out: ICAM-1 (% inh. 50 µM)", "protocol": "(§2) Plate proliferating human umbilical vein endothelial cells (HUVEC) or human aortic smooth muscle cells (HASMC) from Clonetics (San Diego, CA) onto 96-well plates in 100 µL medium per well at 20,000 cells per cm^2. Maintain the cultures in growth medium (EGM or SMGM2, Clonetics, San Diego, CA) for two days prior to addition of cytokines or drugs. Add cytokines plus or minus compounds for 20 to 24 hours prior to analysis for adhesion molecule levels. Add tumor necrosis factor (Genzyme, Cambridge, MA) to cultures at 500-1000 units/mL to stimulate ICAM-1 expression. Add interleukin-4 (GIBCO-BRL, Gaithersburg, MD) to cultures at 100-200 pg/mL to stimulate VCAM-1 expression. […] Remove the culture medium, and wash the monolayers twice with Hanks buffered saline solution (HBSS) at room temperature. Add the primary antibody (anti-human VCAM-1 from Upstate Biotechnology, Inc., Lake Placid, NY or anti-human ICAM-1 from Immunotech, Inc., Westbrook, ME) to each well (1 µg/mL in HBSS plus 5% newborn calf serum, GIBCO-BRL, Gaithersburg, MD) and incubate at 37°C for 1 hr. Wash the wells twice with HBSS, then add 100 µL of a 1/1000 dilution of goat anti-mouse IgG conjugated to horse radish peroxidase (BioRad, Hercules, CA) in HBSS plus 5% newborn calf serum to each well and incubated for 1 hr at 37°C. Wash the wells three times with HBSS, then add 100 µL of TMB substrate (BioRad, Hercules, CA) to each well. Stop the reaction after blue color develops by addition of 50 µL of IN H2SO4. Measure absorbance at 450 nm with a plate reader.\nTable 1 summarizes the ability of selected compounds of this invention to inhibit VCAM-1 and ICAM-1 using human aortic smooth muscle cells (HASMC). In these experiments, the cells were coincubated with interleukin-4 to stimulate VCAM-1 expression and with tumor necrosis factor-alpha to stimulate ICAM-1 expression."}, "ICAM-1 [3]": {"tested_on": "ICAM-1", "experiment": "Inhibition of ICAM-1 expression in proliferating human umbilical vein endothelial cells (cell ELISA)", "assay_type": "cell-based", "conditions": "HUVEC, coincubated with tumor necrosis factor-alpha about 20 to 24 hr, average of two runs, read-out: ICAM-1 (% inh. 50 µM)", "protocol": "as §2, with “reader. […] In these experiments, the cells were coincubated with tumor necrosis factor-alpha along with the indicated compounds about 20 to 24 hr before assaying cell surface adhesion molecule expression.” for “reader.”"}, "[4]": {"conditions": "total cholesterol in rat serum, read-out: CHOL"}, "[5]": {"conditions": "triglycerides in rat serum, read-out: TRIG"}},
  "note": "Like-named read-outs stand apart in the source and are kept apart here.",
  "data": [
    {"smiles": "CC(C)=CCC[C@H](C)CCOc1cc(C(C)(C)C)c(O)c(C(C)(C)C)c1", "note": "[MDL 103,294, Phenol, 2,6-bis(1,1-dimethylethyl)-4-[(3,7-dimethyl-6-octenyl)oxy]-, (S)-]", "values": [
      {"measurement": "food", "setting": "[1]", "result": 108, "unit": "%"},
      {"measurement": "lw/bw", "setting": "[1]", "result": 129, "unit": "%"},
      {"measurement": "body wt.", "setting": "[1]", "result": 101, "unit": "%"},
      {"measurement": "mortality", "setting": "[1]", "result": 0, "unit": "%"},
      {"measurement": "ALT", "setting": "Male Sprague-Dawley Rats", "result": 132, "unit": "%"},
      {"measurement": "ALP", "setting": "Male Sprague-Dawley Rats", "result": 124, "unit": "%"},
      {"measurement": "AST", "setting": "Male Sprague-Dawley Rats", "result": 88, "unit": "%"},
      {"measurement": "GLUC", "setting": "Male Sprague-Dawley Rats", "result": 103, "unit": "%"},
      {"measurement": "response vs control in vivo at 0.3 % in diet", "setting": "Male Sprague-Dawley Rats; [4]", "result": 102, "unit": "%"},
      {"measurement": "response vs control in vivo at 0.3 % in diet", "setting": "Male Sprague-Dawley Rats; [5]", "result": 56, "unit": "%"}
    ]},
    {"smiles": "CC(C)=CCCC(C)CCSc1cc(C(C)(C)C)c(O)c(C(C)(C)C)c1", "note": "(stereo not shown) [MDL 103,960, Phenol, 2,6-bis(1,1-dimethylethyl)-4-[(3,7-dimethyl-6-octenyl)thio]-]", "values": [
      {"measurement": "inhibition at 50 µM", "setting": "ICAM-1 [2]", "result": 0, "unit": "%"},
      {"measurement": "inhibition at 50 µM", "setting": "ICAM-1 [3]", "result": 9.5, "unit": "%"},
      {"measurement": "food", "setting": "[1]", "result": 105, "unit": "%"},
      {"measurement": "lw/bw", "setting": "[1]", "result": 130, "unit": "%"},
      {"measurement": "body wt.", "setting": "[1]", "result": 100, "unit": "%"},
      {"measurement": "mortality", "setting": "[1]", "result": 0, "unit": "%"},
      {"measurement": "ALT", "setting": "Male Sprague-Dawley Rats", "result": 117, "unit": "%"},
      {"measurement": "ALP", "setting": "Male Sprague-Dawley Rats", "result": 125, "unit": "%"},
      {"measurement": "AST", "setting": "Male Sprague-Dawley Rats", "result": 102, "unit": "%"},
      {"measurement": "GLUC", "setting": "Male Sprague-Dawley Rats", "result": 110, "unit": "%"},
      {"measurement": "response vs control in vivo at 0.3 % in diet", "setting": "Male Sprague-Dawley Rats; [4]", "result": 113, "unit": "%"},
      {"measurement": "response vs control in vivo at 0.3 % in diet", "setting": "Male Sprague-Dawley Rats; [5]", "result": 80, "unit": "%"}
    ]},
    {"smiles": "CC(C)CCCC(C)CCOc1ccc(O)c(C(C)(C)C)c1", "note": "(stereo not shown) [MDL 104,191, Phenol, 2-(1,1-dimethylethyl)-4-[(3,7-dimethyloctyl)oxy]-]", "values": [
      {"measurement": "inhibition at 50 µM", "setting": "ICAM-1 [2]", "result": 22, "unit": "%"},
      {"measurement": "inhibition at 50 µM", "setting": "ICAM-1 [3]", "result": 70.5, "unit": "%"},
      {"measurement": "food", "setting": "[1]", "result": 76, "unit": "%"},
      {"measurement": "lw/bw", "setting": "[1]", "result": 126, "unit": "%"},
      {"measurement": "body wt.", "setting": "[1]", "result": 92, "unit": "%"},
      {"measurement": "mortality", "setting": "[1]", "result": 0, "unit": "%"},
      {"measurement": "ALT", "setting": "Male Sprague-Dawley Rats", "result": 149, "unit": "%"},
      {"measurement": "ALP", "setting": "Male Sprague-Dawley Rats", "result": 81, "unit": "%"},
      {"measurement": "AST", "setting": "Male Sprague-Dawley Rats", "result": 146, "unit": "%"},
      {"measurement": "GLUC", "setting": "Male Sprague-Dawley Rats", "result": 106, "unit": "%"},
      {"measurement": "response vs control in vivo at 0.3 % in diet", "setting": "Male Sprague-Dawley Rats; [4]", "result": 109, "unit": "%"},
      {"measurement": "response vs control in vivo at 0.3 % in diet", "setting": "Male Sprague-Dawley Rats; [5]", "result": 112, "unit": "%"}
    ]},
    {"smiles": "CC(C)=CCC[C@@H](C)CCOc1cc(C(C)(C)C)c(O)c(C(C)(C)C)c1", "note": "[MDL 104,535, Phenol, 2,6-bis(1,1-dimethylethyl)-4-[(3,7-dimethyl-6-octenyl)oxy]-,(R)-]", "values": [
      {"measurement": "inhibition at 50 µM", "setting": "ICAM-1 [2]", "result": 10, "unit": "%"},
      {"measurement": "inhibition at 50 µM", "setting": "ICAM-1 [3]", "result": 11.5, "unit": "%"},
      {"measurement": "food", "setting": "[1]", "result": 95, "unit": "%"},
      {"measurement": "lw/bw", "setting": "[1]", "result": 119, "unit": "%"},
      {"measurement": "body wt.", "setting": "[1]", "result": 102, "unit": "%"},
      {"measurement": "mortality", "setting": "[1]", "result": 0, "unit": "%"},
      {"measurement": "ALT", "setting": "Male Sprague-Dawley Rats", "result": 108, "unit": "%"},
      {"measurement": "ALP", "setting": "Male Sprague-Dawley Rats", "result": 151, "unit": "%"},
      {"measurement": "AST", "setting": "Male Sprague-Dawley Rats", "result": 94, "unit": "%"},
      {"measurement": "GLUC", "setting": "Male Sprague-Dawley Rats", "result": 112, "unit": "%"},
      {"measurement": "response vs control in vivo at 0.3 % in diet", "setting": "Male Sprague-Dawley Rats; [4]", "result": 103, "unit": "%"},
      {"measurement": "response vs control in vivo at 0.3 % in diet", "setting": "Male Sprague-Dawley Rats; [5]", "result": 60, "unit": "%"}
    ]}
  ]
}
